One test has as its target T1, rat EP2 receptor (Rattus norvegicus, UniProt Q62928).
T1 construct: expressed in transfected cells
As to the kind of experiment: Rat EP2 receptor agonistic/antagonistic action (cAMP assay, CHO-K1 stable expression cells). The test is classed as cell-based. Conditions: cAMP increasing action, 1 μM PGE2 taken as 100%, NE means that the action has no significance. As to the method:
For a rat EP2 receptor, stable expression cells were used to carry out a cAMP assay. The agonistic activity was evaluated by the cAMP increasing action by the test compound, and the antagonistic activity was evaluated by the inhibiting action of the test compound on the cAMP increasing action by PGE2.
The rat EP2 receptor cDNA was subcloned into an expression vector (pcDNA3.1-V5-His-topo, manufactured by Invitrogen Corporation). This expression vector was introduced into CHO-K1 cells (American Type Culture Collection) to prepare a rat EP2 receptor stable expression cell line. These cells were seeded onto a 96-well microplate at 0.5×10^4 cell/well, and used for the experiment the next day. The culture medium of each well was removed by suction, 100 μL/well of an assay culture medium (α-MEM containing 2 μM indomethacin and 0.1% bovine serum albumin) was added thereto, and incubated at 37° C. for 1 hour. The culture medium was removed again by suction, and replaced with 100 μL/well of an assay culture medium containing a test compound and 1 mM IBMX. […] Using a cAMP femto 2 kit (manufactured by Cis Bio International), the cAMP concentration in the cell lysate was measured. In this connection, the cAMP increasing action (%) was calculated with the cAMP increasing action by 1 μM PGE2 was taken as 100%.

The target of test [1] is T2, rat EP4 receptor (Rattus norvegicus, UniProt P43114). As to the kind of experiment: EP4 receptor agonistic action in rat (cAMP increasing action in rat EP4 receptor expression CHO-K1 cells). Format: cell-based. Conditions: cAMP increasing action by 1 μM PGE2 taken as 100%. Also noted: expressed in transfected cells. The procedure: The agonistic activity was evaluated by the cAMP increasing action in the rat EP4 receptor expression cells. The rat EP4 receptor expression vector was introduced into CHO-K1 cells (American Type Culture Collection) to prepare a rat EP4 receptor stable expression cell line. These cells were seeded onto a 96-well microplate at 2×10^4 cell/well, and used for the experiment the next day. The culture medium of each well was removed by suction, 100 μL/well of an assay culture medium (2 μM indomethacin, 0.1% bovine serum albumin-containing α-MEM) was added thereto, and incubated at 37° C. for 1 hour. The culture medium was removed again by suction, and replaced with 100 μL/well of an assay culture medium comprising a test compound and 1 mM IBMX (3-isobutyl-1-methylxanthine). After incubating at 37° C. for 30 minutes, the culture medium was removed by suction, 100 μL/well of a cell lysate (0.2% Triton-X100-containing phosphate buffer physiological saline) was put thereinto, and the plate was shaken for 10 minutes. Using a cAMP femto 2 kit (manufactured by Cis Bio International), the cAMP concentration in the cell lysate was measured. Further, the cAMP increasing action (%) was calculated with the cAMP increasing action by 1 μM PGE2 was taken as 100%.
T2 sequence (P43114 whole entry): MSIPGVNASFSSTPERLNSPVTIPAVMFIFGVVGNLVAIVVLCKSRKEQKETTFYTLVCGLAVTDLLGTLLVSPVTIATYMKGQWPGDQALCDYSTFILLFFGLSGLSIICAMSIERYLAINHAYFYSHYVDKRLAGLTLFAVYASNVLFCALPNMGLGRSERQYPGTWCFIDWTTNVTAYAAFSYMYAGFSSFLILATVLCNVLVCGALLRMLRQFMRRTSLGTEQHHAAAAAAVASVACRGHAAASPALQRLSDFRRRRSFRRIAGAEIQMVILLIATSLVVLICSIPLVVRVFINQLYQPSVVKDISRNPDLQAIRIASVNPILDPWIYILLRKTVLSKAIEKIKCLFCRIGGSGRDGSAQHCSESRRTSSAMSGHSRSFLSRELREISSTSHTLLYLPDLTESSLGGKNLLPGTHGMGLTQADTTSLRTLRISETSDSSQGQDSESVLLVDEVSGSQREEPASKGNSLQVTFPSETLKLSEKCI

Test [2] concerns the target T2, rat EP4 receptor. As to the kind of experiment: Evaluation test on EP4 receptor affinity in rat ([3H]PGE2 receptor binding test, membrane fraction). As to conditions: [3H]PGE2 0.3 nM, membrane fraction of rat EP4 expressing HEK293 cells. Also noted: expressed in transfected cells; host or cells: HEK293 cells, transient transfection (Lipofectamine 2000); membrane fraction used. As to the method: A rat EP4 receptor cDNA was subcloned into an expression vector (pcDNA3.1-V5-His-topo, manufactured by Invitrogen Corporation) to prepare a rat EP4 expression vector. HEK293 cells were cultured in a collagen type I-treated 15 cm dish (manufactured by Asahi Techno Glass Co. Ltd.) to a confluence of 70%. An Opti-MEM culture medium at 1.2 mL/dish and a transfection reagent (Lipofectamine 2000, manufactured by Invitrogen Corporation) at 60 μL/dish were mixed, followed by being left to stand at room temperature for 5 minutes. Then, the rat EP4 receptor expression vector at 15 μg/dish was added thereto, followed by being left to stand at room temperature for 30 minutes. The liquid mixture of the transfection reagent was added into the dish, followed by culturing for 20 to 24 hours. The cell culture was carried out in a CO2 incubator (37° C., 5% CO2).
The culture medium was removed by suction, 10 mL of cooled PBS was added thereto per 15 cm dish, and the cells were scraped using a cell scraper. After washed with cooled PBS (1,200 rpm, 4° C., 5 minutes), suspended in 6 mL/dish of cooled 20 mM Tris-HCl (pH 7.4; manufactured by Nacalai Tesque Inc., 5 mM EDTA included) and homogenized using a Polytron, the homogenate was centrifuged (26,000 rpm, 20 minutes, 4° C.). The obtained precipitate was resuspended in cooled 20 mM Tris-HCl and homogenized again using a Polytron, and the homogenate was centrifuged (26,000 rpm, 20 minutes, 4° C.). The obtained precipitate was resuspended in 50 mM HEPES (pH 7.5; manufactured by Dojindo Laboratories) at 1 mL per dish, homogenized using a Polytron, and freeze-stored at −80° C. as a membrane fraction. At this time, a part thereof was used for the measurement of the protein concentration. Measurement of the protein concentration was carried out using a Protein assay stain (manufactured by Bio-Rad Laboratories) in accordance with a standard Protocol as appended in duplicate.
[^3H]PGE2 50 μL (final concentration 0.3 nM; manufactured by Perkin Elmer Co., Ltd.), 100 μL (20 μg/well) of the membrane fraction prepared from the rat EP4 expression cell, and 50 μL of a test compound were mixed in a 96-well microplate (manufactured by Sumitomo Bakelite Co., Ltd.), incubated at room temperature for 1 hour, then filtered by suction on a microplate (UniFilter-96 GF/B, manufactured by Perkin Elmer Co., Ltd.) using a cell harvester (FilterMate Harvester, manufactured by Perkin Elmer Co., Ltd.), and washed three times with 300 μL/well of a cooled assay buffer (50 mM HEPES, 10 mM MgCl2). Dilution of [^3H]PGE2 and the membrane fraction was carried out using the assay buffer, and dilution of the test compound and the unlabeled PGE2 was carried out using dimethyl sulfoxide and the assay buffer. The UniFilter-96 GF/B was treated by preliminarily washing twice with 200 μL/well of the cooled assay buffer. The UniFilter-96 GF/B after filtration was dried in a dryer overnight, 50 μL/well of a liquid scintillation cocktail (MicroScint20, manufactured by Perkin Elmer Co., Ltd.) was added thereto, and the radioactivity was then measured using a liquid scintillation counter for a microplate (TopCount, manufactured by Perkin Elmer Co., Ltd.). For measurement of the non-specific binding, an unlabeled PGE2 (final concentration 1 μM; manufactured by Cayman Chemical Company) was added. All of the measurements were carried out in duplicate, and the specific binding amount was determined by subtracting the non-specific binding amount from the total binding amount.
According to the test method as described above, the rat EP4 receptor affinity (Ki) of the compound of the formula (I) was measured. […] In this connection, Ex means Example Compound number.

Structures can show the parent of a compound that is named as a salt.

T1 sequence (Q62928 whole entry): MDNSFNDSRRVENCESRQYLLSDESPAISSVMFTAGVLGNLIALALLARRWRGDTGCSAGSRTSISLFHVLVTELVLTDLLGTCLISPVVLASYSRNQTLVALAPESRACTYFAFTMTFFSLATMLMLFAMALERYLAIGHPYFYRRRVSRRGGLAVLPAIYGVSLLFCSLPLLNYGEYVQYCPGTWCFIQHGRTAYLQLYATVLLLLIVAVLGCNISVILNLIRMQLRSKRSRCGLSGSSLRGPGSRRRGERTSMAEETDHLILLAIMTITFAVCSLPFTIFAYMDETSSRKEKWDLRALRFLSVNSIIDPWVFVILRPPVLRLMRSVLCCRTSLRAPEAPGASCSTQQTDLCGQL

As to `CCC[C@H]1CCCN1Cc1c(Cl)cc(Cl)c(=O)n1CCc1ccc(C(=O)O)cc1` [Example 17, 4-{2-[3,5-dichloro-2-oxo-6-{[(2S)-2-propylpyrrolidin-1-yl]methyl}pyridin-1(2H)-yl]ethyl}benzoic acid trifluoroacetate], the “Rat EP2 Agonistic Action 10 μM” value on rat EP2 receptor turned out to be 14%. Moreover, the “cAMP increasing action (%) at 10 μM” value at rat EP4 receptor [1] is recorded as 58%. The compound further had an inhibitory constant (Ki) at rat EP4 receptor [2] of 11 nM.

For the compound `O=C(O)c1ccc(CCn2c(CNc3cccc(OC(F)(F)F)c3)c(Cl)cc(Cl)c2=O)cc1` [Example 107], the “cAMP increasing action (%) at 10 μM” value at rat EP4 receptor [1] is 76%. The Ki on rat EP4 receptor [2] amounted to 10 nM.

With `O=C(O)c1ccc(CCn2c(CN3CCc4ccc(F)cc43)c(Cl)cc(Cl)c2=O)cc1` [Example 9, 4-(2-{3,5-dichloro-6-[(6-fluoro-2,3-dihydro-1H-indol-1-yl)methyl]-2-oxopyridin-1(21-1)-yl}ethyl)benzoic acid], the “cAMP increasing action (%) at 10 μM” value at rat EP4 receptor [1] is reported as 65%. In addition, the affinity on rat EP4 receptor [2] corresponds to a Ki of 11 nM.

On to `CN(Cc1c(Cl)cc(Cl)c(=O)n1CCc1ccc(C(=O)O)cc1)c1cccc(Cl)c1` [Example 160], for which the “Rat EP2 Agonistic Action 10 μM” value on rat EP2 receptor turned out to be 19%. Moreover, the “cAMP increasing action (%) at 10 μM” value at rat EP4 receptor [1] is 79%. This compound also displayed a Ki on rat EP4 receptor [2] of 11 nM.

Values taken from US20110082133A1, “PYRIDONE COMPOUNDS” (priority 2008, published 2011).
